Test results: patent US20110201564A1, “SUBSTITUTED 7-SULFANYLMETHYL, 7-SULFINYLMETHYL AND 7-SULFONYLMETHYL INDOLES AND USE THEREOF” (BAYER SCHERING PHARMA AKTIENGESELLSCHAFT, priority 2008, published 2011)
Where two headings read alike, the source gives them in different places.

Molecular target: T1, CYP3A4 (Homo sapiens, UniProt P08684)
T1 construct: using human liver microsomes (pool from various individuals); from tissue; host or cells: human liver microsomes (pool from various individuals)
Assay: CYP inhibition assay with human liver microsomes
Assay type: in vitro ADME
Summary of the method: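 Pooled human liver microsomes (23-233 μg/mL) incubated 15-20 min at 37° C, pH 7.4 phosphate with NADP+/G6P regenerating system, isoform-specific substrate and six test compound concentrations (top 50 or 20 μM). Metabolites quantified by LC-MS/MS; IC50 versus uninhibited formation. CYP3A4 mechanism-based check: 30 min preincubation before midazolam or testosterone.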

[1] = 30 min preincubation with test compound before substrate, read-out: CYP 3A4 Preincubation, 30 min.
[2] = without preincubation, read-out: CYP 3A4 Coincubation

T1 sequence (P08684 whole entry): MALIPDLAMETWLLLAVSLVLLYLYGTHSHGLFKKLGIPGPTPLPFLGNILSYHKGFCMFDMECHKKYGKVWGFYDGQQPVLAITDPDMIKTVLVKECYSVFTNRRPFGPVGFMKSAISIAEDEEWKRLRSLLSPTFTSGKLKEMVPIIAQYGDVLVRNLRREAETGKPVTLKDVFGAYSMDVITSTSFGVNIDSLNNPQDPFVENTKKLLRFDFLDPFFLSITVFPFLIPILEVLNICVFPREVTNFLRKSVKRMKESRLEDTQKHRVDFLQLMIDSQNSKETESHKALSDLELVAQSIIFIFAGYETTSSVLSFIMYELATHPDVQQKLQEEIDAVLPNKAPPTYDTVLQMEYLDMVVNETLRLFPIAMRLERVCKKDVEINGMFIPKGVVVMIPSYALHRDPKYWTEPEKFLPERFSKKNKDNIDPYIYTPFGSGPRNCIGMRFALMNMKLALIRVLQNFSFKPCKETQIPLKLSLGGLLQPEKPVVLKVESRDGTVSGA

| SMILES | IC50 [1] | IC50 [2] |
| --- | --- | --- |
| CS(=O)(=O)Cc1cc(F)cc2c(C(c3ccc(C(F)(F)F)cc3F)C3CC3C#N)c[nH]c12 (single isomer, unassigned) [Example 271-1-1, 2-({5-Fluoro-7-[(methylsulfonyl)methyl]-1H-indol-3-yl}[2-fluoro-4-(trifluoro-methyl)phenyl]methyl)cyclopropanecarbonitrile] | 25.6 µM | > 40 µM |
| CS(=O)(=O)Cc1cccc2c(C(CCC#N)c3ccc4c(c3)OC(F)(F)O4)c[nH]c12 (centres unmarked) [Example 169, 4-(2,2-Difluoro-1,3-benzodioxol-5-yl)-4-{7-[(methylsulfonyl)methyl]-1H-indol-3-yl}butanonitrile] | 17 µM | > 20 µM |
| CS(=O)(=O)Cc1cc(F)cc2c(C(c3ccc(Cl)cc3F)C3CC3C#N)c[nH]c12 (single isomer, unassigned) [Example 273-1-2, 2-[(4-Chloro-2-fluorophenyl){5-fluoro-7-[(methylsulfonyl)methyl]-1H-indol-3-yl}methyl]cyclopropanecarbonitrile] | 13.7 µM | > 20 µM |
| CS(=O)(=O)Cc1cccc2c(C(CCC#N)c3ccc4sccc4c3)c[nH]c12 (centres unmarked) [Example 73, 4-(1-Benzothiophen-5-yl)-4-{7-[(methylsulfonyl)methyl]-1H-indol-3-yl}butanonitrile] | 16.6 µM | > 20 µM |
| CS(=O)(=O)Cc1cccc2c(C3(C4CC4)CCc4cc(F)ccc43)c[nH]c12 (centres unmarked) [Example 107, 3-(1-Cyclopropyl-5-fluoro-2,3-dihydro-1H-inden-1-yl)-7-[(methylsulfonyl)methyl]-1H-indole] | 12.9 µM | > 20 µM |
| CCC(CCO)(c1ccc(Cl)cc1)c1c[nH]c2c(CS(C)(=O)=O)cccc12 (centres unmarked) [Example 147, 3-(4-Chlorophenyl)-3-{7-[(methylsulfonyl)methyl]-1H-indol-3-yl}pentan-1-ol] | 8.8 µM | > 20 µM |
| CCC(CCC#N)(c1ccc(Cl)cc1)c1c[nH]c2c(CS(C)(=O)=O)cccc12 (centres unmarked) [Example 172, 4-(4-Chlorophenyl)-4-{7-[(methylsulfonyl)methyl]-1H-indol-3-yl}hexanonitrile] | 9.6 µM | > 20 µM |

More lines, now with the values ahead:

| IC50 [1] | IC50 [2] | SMILES |
| --- | --- | --- |
| > 20 µM | > 20 µM | CS(=O)(=O)Cc1cccc2c(C(c3ccc(F)cc3)c3ccc(C(F)(F)F)cc3)c[nH]c12 (centres unmarked) [Example 113, 3-{(4-Fluorophenyl) [4-(trifluoromethyl)phenyl]methyl}-7-[(methylsulfonyl)methyl]-1H-indole] |
| 13.1 µM | > 20 µM | CS(=O)(=O)Cc1cccc2c(C(CCC#N)c3ccc(Cl)cc3F)c[nH]c12 (single isomer, unassigned) [Example 59-1, 4-(4-Chloro-2-fluorophenyl)-4-{7-[(methylsulfonyl)methyl]-1H-indol-3-yl}butanonitrile] |
| 19 µM | > 20 µM | CS(=O)(=O)Cc1cccc2c(C(c3ccc(Cl)cc3)C3CC3(F)F)c[nH]c12 (single isomer, unassigned) [Example 261-1, 3-[(4-Chlorophenyl)(2,2-difluorocyclopropyl)methyl]-7-[(methylsulfonyl)methyl]-1H-indole] |
